# PMC4404333, “Identification of Selective Inhibitors of the Plasmodium falciparum Hexose Transporter PfHT by Screening Focused Libraries of Anti-Malarial Compounds” (PLoS ONE, 2015)
# Values joined by “and” are separate entries in the source; they are usually repeats but may differ in a detail not shown here. Equal values may be shown once. Where a name gives a salt, the structure may show the parent alone. Read-outs that look alike come from different tables or passages of the source.
# Assays:
# PfHT = PfHT (Plasmodium falciparum, UniProt Q7KWJ5); assay: Uptake of [3H] D-glucose by L. mexicana Δlmxgt1-3 null mutants expressing PfHT; type: cell-based; parameters: expressed in transfected cells; host or cells: Leishmania mexicana promastigotes, Δlmxgt1-3 hexose transporter null mutant; details: for SIglucose GLUT1/PfHT (Specificity Index, IC50 for GLUT1/IC50 for PfHT): uptake of 100 μM [3H] D-glucose; for Ki: linear regression; for Vmax: glucose uptake by PfHT
# PfHT, sequence (Q7KWJ5 whole entry): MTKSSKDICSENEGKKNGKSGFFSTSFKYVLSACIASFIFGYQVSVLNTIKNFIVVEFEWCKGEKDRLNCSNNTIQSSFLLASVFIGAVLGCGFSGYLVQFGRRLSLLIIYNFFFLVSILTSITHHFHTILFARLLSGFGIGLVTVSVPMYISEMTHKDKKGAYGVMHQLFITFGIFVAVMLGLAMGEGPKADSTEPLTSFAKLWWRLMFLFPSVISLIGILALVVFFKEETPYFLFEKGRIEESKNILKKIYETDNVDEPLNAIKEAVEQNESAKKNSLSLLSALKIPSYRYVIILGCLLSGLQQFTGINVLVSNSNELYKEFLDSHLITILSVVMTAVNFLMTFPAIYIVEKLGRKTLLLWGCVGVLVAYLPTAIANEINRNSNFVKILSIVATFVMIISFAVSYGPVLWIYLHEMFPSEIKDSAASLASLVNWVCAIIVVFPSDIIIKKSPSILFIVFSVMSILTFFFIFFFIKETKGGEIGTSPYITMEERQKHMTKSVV
# Protocol: (§1) Glucose uptake assays employed logarithmic phase L. mexicana promastigotes of the Δlmxgt1-3 hexose transporter null mutant strain expressing either PfHT or GLUT1 from an episomal expression vector [17]. Parasites (1x10^7) were resuspended in 100 μL phosphate buffered saline, pH 7.4. Prior to uptake, parasites were pre-incubated for 5 min with inhibitor, and uptake was initiated by adding 100 μL of 200 μM [^3H] D-glucose diluted to 4.0 μCi/mL. Uptake was terminated, typically after 1 min, by centrifuging the parasites through a layer of dibutyl phthalate, as described. Control uptake assays employing [^3H] hypoxanthine, [^3H] uridine, and [^3H] L-proline were performed similarly. Analysis of kinetic data was performed using Graph Pad Prism 4.0b software (Graph Pad).
# human GLUT1 = biological target: T1, human GLUT1 (Homo sapiens, UniProt P11166); assay: Uptake of [3H] D-glucose by L. mexicana Δlmxgt1-3 null mutants expressing GLUT1; type: cell-based; parameters: expressed in transfected cells; host or cells: Leishmania mexicana promastigotes, Δlmxgt1-3 hexose transporter null mutant; details: inhibition of uptake of 100 μM [3H] D-glucose, 1 min uptake assay
# T1 sequence (P11166 1-492): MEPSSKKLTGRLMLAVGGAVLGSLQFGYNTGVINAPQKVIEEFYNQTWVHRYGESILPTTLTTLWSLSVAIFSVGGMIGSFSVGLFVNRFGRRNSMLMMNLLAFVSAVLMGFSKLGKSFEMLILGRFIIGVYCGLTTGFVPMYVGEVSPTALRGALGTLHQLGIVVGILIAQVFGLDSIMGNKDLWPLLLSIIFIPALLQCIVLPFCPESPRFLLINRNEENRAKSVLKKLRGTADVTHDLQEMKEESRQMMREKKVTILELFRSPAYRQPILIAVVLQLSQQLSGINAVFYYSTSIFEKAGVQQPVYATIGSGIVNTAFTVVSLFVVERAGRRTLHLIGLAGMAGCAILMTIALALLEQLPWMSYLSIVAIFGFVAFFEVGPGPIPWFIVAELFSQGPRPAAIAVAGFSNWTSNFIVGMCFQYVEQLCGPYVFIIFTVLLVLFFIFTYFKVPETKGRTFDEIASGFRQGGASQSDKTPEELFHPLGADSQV
# Protocol: as §1
# Solubility assay = type: physicochemical; details: aqueous buffer, kinetic from dmso stock, PBS pH 7.4, room temperature
# Protocol: Next, 5 μL of this reference stock plate was mixed with 70 μL of 1-propanol and 75 μL of PBS (pH 7.4) to make the reference plate, and the UV spectrum (250–500 nm) of the reference plate was read. Then, 6 μL of 10 mM test compound stock was added to 600 μL of PBS, pH 7.4, in a 96-well storage plate and mixed. The storage plate was sealed and incubated at room temperature for 18 h. The suspension was then filtered through a 96-well filter plate (pION Inc.). Next, 75 μL of filtrate was mixed with 75 μL of 1-propanol to make the sample plate, and the UV spectrum of the sample plate was read. Calculations were done using μSOL Evolution software based on the area under the curve (AUC) of the UV spectrum of the sample plate and the reference plate. All compounds were tested in triplicate.
# [1] = Parallel artificial membrane permeability assay (PAMPA); details: for Permeation: pH 7.4; for Retention: retention in artificial membrane
# Protocol: A parallel artificial membrane permeability assay (PAMPA) was conducted on a Biomek FX lab automation workstation (Beckman Coulter, Inc.) with PAMPA evolution 96 command software (pION Inc.) as follows: 3 μL of 10 mM test compound stock was mixed with 600 μL of PBS (pH 7.4) to make diluted test compound. Then 150 μL of diluted test compound was transferred to a UV plate (pION Inc.), and the UV spectrum was read as the reference plate. The membrane on a preloaded PAMPA sandwich (pION Inc.) was painted with 4 μL of GIT lipid (pION Inc.). The acceptor chamber was then filled with 200 μL of acceptor solution buffer (pION Inc.), and the donor chamber was filled with 180 μL of diluted test compound. The PAMPA sandwich was assembled, placed on the Gut-Box controlled environment chamber and stirred for 30 min. The aqueous boundary layer was set to 40 μm for stirring. The UV spectrum (250–500 nm) of the donor and the acceptor were read. The permeability coefficient was calculated using PAMPA Evolution 96 Command software (pION Inc.) based on the AUC of the reference plate, the donor plate, and the acceptor plate. All compounds were tested in triplicate.
# [2] = system: P. falciparum strain 3D7 intraerythrocytic forms; parameters: method as in PubChem web site, http://pubchem.ncbi.nlm.nih.gov/; details: reported values; ref PubChem web site, http://pubchem.ncbi.nlm.nih.gov/; read-out: EC50 3D7 In vitro; cited from earlier work
# P. falciparum strain 3D7 = assay: Proliferation of intraerythrocytic P. falciparum 3D7 (SYBR Green, 72 h); type: cell-based, Plasmodium falciparum; details: Plasmodium falciparum, 3D7, 72 h, read-out: Pf 3D7 EC50
# Protocol: (§2) Two P. falciparum strains were used in this study and were provided by the MR4 Unit of the American Type Culture Collection (ATCC, Manassas, VA). Those two strains were the chloroquine sensitive strain 3D7 and the K1 strain that is resistant to chloroquine, pyrimethamine, and sulfadoxine.
# (§3) Asynchronous parasites were maintained in culture based on the method of Trager. Parasites were grown in presence of fresh group O-positive erythrocytes (Key Biologics, LLC) in Petri dishes at a hematocrit of 4–6% in RPMI based media (RPMI 1640 supplemented with 0.5% AlbuMAX II, 25 mM HEPES, 25 mM NaHCO3 (pH 7.3), 100 μg/mL hypoxanthine, and 5 μg/mL gentamycin). Cultures were incubated at 37°C in a gas mixture of 90% N2, 5% O2, 5% CO2. For EC50 determinations, 20 μL of RPMI 1640 with 5 μg/mL gentamycin were dispensed per well in an assay plate (Corning 384-well microtiter plate, clear bottom, tissue culture treated, catalog no. 8807BC). 40 nL of compound, previously serially diluted in a separate 384-well white polypropylene plate (Corning, catalog no. 8748BC), was dispensed to the assay plate by hydrodynamic pin transfer (FP1S50H, V&P Scientific Pin Head) and then 20 μL of a synchronized culture suspension (1% rings, 4% hematocrit) was added to each well, thus making a final hematocrit and parasitemia of 2% and 1%, respectively. Assay plates were incubated for 72 h, and the parasitemia was determined by a method previously described: Briefly, 10 μL of the assay solution in PBS (10X SYBR Green I, 0.5% v/v triton X-100, 0.5 mg/mL saponin) was added to each well. Assay plates were shaken for 1 min, incubated in the dark for 90 min, and read with an Envision (Perkin Elmer) spectrophotometer at Ex/Em of 485 nm/535 nm. EC50s were calculated with a custom program (RISE, Robust Investigation of Screening Experiments) using a four-parameter logistic equation.
# P. falciparum strain K1 = assay: Proliferation of intraerythrocytic P. falciparum K1 (SYBR Green, 72 h); type: cell-based, Plasmodium falciparum; details: Plasmodium falciparum, K1, 72 h, read-out: Pf K1 EC50
# Protocol: as §2, §3
# [3] = read-out: IC50 PfHT, inhibition of uptake of 100 μM [3H] D-glucose, 1 min uptake assay
SMILES,IC50 (PfHT) [µM],"SIglucose GLUT1/PfHT (Specificity Index, IC50 for GLUT1/IC50 for PfHT) (PfHT)",IC50 (human GLUT1),EC50 [2] [µM],further results
COc1ccc(Nc2ccc3cc(S(=O)(=O)N4CCCCC4C)ccc3n2)cc1Cl (centres unmarked) [Compound 11],0.94,65,61 µM,–,selective inhibition of PfHT versus GLUT1 (PfHT): 65 fold
"NC(=O)N1c2ccccc2C=Cc2ccccc21 [Carbamazepine, carbamazepine, reference compound]",–,–,–,–,solubility at 18 h (Solubility assay; PBS buffer): 87 ± 1.2 µM; Permeation [1]: 85 ± 21 10^-6 cm/s; Retention [1]: 43 ± 3.0%
CC(C)C(C(=O)n1ncc2c3c(N)nc(N)nc3ccc21)C(C)C [Compound 3],1.1,7.4,8.1 µM,0.65,–
CC(C)(C)C(=O)Nc1ccc(C(=O)Nc2cccc(-c3nc4ccccc4[nH]3)c2)cc1 [Compound 8],2.7,0.14,0.37 µM,0.28,–
Cc1cccc(C(=O)Nc2cccc(-c3nc4ccccc4[nH]3)c2)c1 [Compound 17],13,0.92,12 µM,–,–
CCC(C)(C)C1CCc2[nH]c3ccccc3c(=O)c2C1 (centres unmarked) [Compound 4],27,0.21,5.7 µM,0.38,–
CCC(C)(CC)C(=O)n1ncc2c3c(N)nc(N)nc3ccc21 [Compound 2],3,15,44 µM,0.01,–
Cc1cc(=O)[nH]c(-n2nc(C)cc2NC(=O)C(c2ccccc2)c2ccccc2)n1 [Compound 6],12,0.055,0.66 µM,0.84,–
COc1ccc(Nc2ccc3cc(S(=O)(=O)N4CCOCC4)ccc3n2)cc1OC [Compound 15],3.1,0.27,0.84 µM,–,–
Cc1cc(C)cc(C(=O)Nc2cccc(-c3nc4ccccc4[nH]3)c2)c1 [Compound 18],16,0.75,12 µM,–,–
CC(C)(C)C(=O)Nc1ccc(C(=O)Nc2ccc(-c3nc4ccccc4[nH]3)cc2)cc1 [Compound 21],91,0.12,11 µM,–,–
COc1ccccc1Nc1ccc2cc(S(=O)(=O)N3CCCC3)ccc2n1 [Compound 14],–,–,6.3 µM,–,IC50 (PfHT; [3]): > 10 µM
CC(C)(C)c1ccc(C(=O)Nc2cccc(-c3nc4ccccc4[nH]3)c2)cc1 [Compound 20],–,–,31 µM,–,IC50 (PfHT; [3]): > 10 µM
"OC(c1cc(C(F)(F)F)nc2c(C(F)(F)F)cccc12)C1CCCCN1 (centres unmarked) [Mefloquine, mefloquine, reference compound]",–,–,–,–,"EC50 (P. falciparum strain 3D7; chloroquine sensitive strain 3D7, 72 h): 0.12 µM; EC50 (P. falciparum strain K1; multi-drug resistant strain K1, 72 h): 0.02 µM"
Cc1ccc(C(=O)Nc2cccc(-c3nc4ccccc4[nH]3)c2)cc1 [Compound 16],23,2–3 and 3.1,72 µM,–,–
"CCN(CC)CCCC(C)Nc1ccnc2cc(Cl)ccc12 (centres unmarked) [Chloroquine, chloroquine, reference compound]",–,–,–,–,EC50 (P. falciparum strain 3D7): 0.08 µM; EC50 (P. falciparum strain K1): 0.81 µM
COc1ccc(Nc2cc(C)nc(Nc3ccc(NC(C)=O)cc3)n2)cc1 [Compound 5],3.4,0.073,0.25 µM,0.86,–
O=C1c2ccc3c4c(ccc(c24)C(=O)N1CCCCO)C(=O)N(CCCCO)C3=O [Compound 7],0.051,71,3.6 µM and > 3 µM,0.79,"selective inhibition of PfHT versus GLUT1 (PfHT): 71 fold; Ki (PfHT; Kic (Ki for binding of inhibitor to free transporter), from plot of Km/Vmax versus [I]): 0.093 µM; Ki (PfHT; Kiu (Ki for binding of inhibitor to substrate-bound transporter), from plot of 1/Vmax versus [I]): 0.091 µM; Vmax (PfHT; [I] 100 nM): 274 ± 71 pmol per 10^7 cells per min; Vmax (PfHT; [I] 300 nM): 128 ± 42 pmol per 10^7 cells per min; mode of inhibition of glucose uptake through PfHT (PfHT; substrate saturation curves, one-way ANOVA of Vmax and Km): non-competitive inhibitors"
"CNC(=C[N+](=O)[O-])NCCSCc1ccc(CN(C)C)o1 [Ranitidine HCl, ranitidine, reference compound]",–,–,–,–,solubility at 18 h (Solubility assay; PBS buffer): 84 ± 1.2 µM; Permeation [1]: 0 ± 0 10^-6 cm/s; Retention [1]: 1.7 ± 1.3%
"CCCSc1ccc2nc(NC(=O)OC)[nH]c2c1 [Albendazole, albendazole, reference compound]",–,–,–,–,solubility at 18 h (Solubility assay): 5.9 ± 2.3 µM; Permeation [1]: 286 ND 10^-6 cm/s; Retention [1]: 59 ± 27%
CCN1CCN(Cc2ccc(NC(=O)c3cc4ccc5cccnc5c4[nH]3)cc2)CC1 [Compound 9],3.5,2.7,9.5 µM,0.38,–
O=C(Nc1cccc(-c2nc3ccccc3[nH]2)c1)c1ccccc1 [Compound 19],5.3,2–3 and 2.1,11 µM,–,–
